Columns and labels:
[1] = target: anti-acetylamantadine affinity-purified antibodies absorbed with amantadine; test: Competitive ELISA with affinity-purified antibodies against acetylamantadine absorbed with amantadine; assay type: binding, rabbit; settings: soluble competitor incubated one hour with antibodies; plates coated with streptavidin and biotinylated acetylamantadine 2 ng/mL; FIG. 2
Procedure: The affinity-purified antibodies against acetylamantadine were flowed over a column of cyanogen-bromide coupled agarose beads conjugated with amantadine and the peak of IgG was taken.
Enzyme-linked immunosorbent assay (ELISA) plates were coated with the biotin-binding protein streptavidin at 2 μg/mL and blocked with skim milk. The ELISA plates were then washed with phosphate-buffered saline with an automated washer. Biotinylated acetylamantadine at 2 ng/mL was added to the streptavidin-coated ELISA plates so that acetylamantadine was bound to the streptavidin. The ELISA plates were then washed to remove the free biotinylated acetylamantadine. The soluble acetylamantadine or the amatidine was titrated in a separate 96-well plate and incubated for an hour with a small, previously determined concentration of anti-acetylamantadine affinity-purified antibodies absorbed with amantadine that gives a clear signal in the ELISA plates coated with acetylamantadine. […]
The ELISA was incubated for two hours and then the ELISA was developed by adding goat antibodies against rabbit IgG conjugated with alakine phosphatase. The substrate was added and the ELISA developed by standard methods and the optical densities were assayed by an ELISA reader and are shown in FIG. 1. […] If one makes quadruplicate assays of samples of urine, one can accurately quantify acetylamantadine in the assay. […]

[2] = target: affinity-purified antibodies against acetylamantadine; test: Competitive ELISA with affinity-purified antibodies against acetylamantadine, not absorbed with amantadine; assay type: binding, rabbit; settings: FIG. 3
[3] = target: serum of a rabbit immunized repeatedly against acetylamantadine; test: Competitive ELISA with serum of a rabbit immunized repeatedly against acetylamantadine; assay type: binding; settings: dilution of serum; FIG. 4
Procedure: A New Zealand white rabbit was immunized intramuscularly with 250 μg of the acetylamantadine-ovalbumin conjugate emulsified in complete Freund's adjuvant. The rabbit was boosted multiple times with acetylamantadine-ovalbumin conjugate, twice with 100 μg of acetylamantadine-conjugate keyhole-limpet hemocyanin and once with 4 pg of avidin coupled with an excess of biotinylated acetylamantadine with alum as an adjuvant. The rabbit was boosted with 100 μg of the acetylamantadine-ovalbumin conjugate 14 days before the rabbit was euthanized and bled out.
The rabbit blood was allowed to clot and the sera were collected. […]
Enzyme-linked immunosorbent assay (ELISA) plates were coated with the biotin-binding protein streptavidin at 2 μg/mL and blocked with skim milk. […] The soluble acetylamantadine or the amatidine was titrated in a separate 96-well plate and incubated for an hour with a small, previously determined concentration of anti-acetylamantadine affinity-purified antibodies absorbed with amantadine that gives a clear signal in the ELISA plates coated with acetylamantadine. […]
The ELISA was incubated for two hours and then the ELISA was developed by adding goat antibodies against rabbit IgG conjugated with alakine phosphatase. The substrate was added and the ELISA developed by standard methods and the optical densities were assayed by an ELISA reader and are shown in FIG. 1. […]

serum at 1:200 dilution = test: Acetylamantadine competitive ELISA using serum at 1:200 dilution (FIG. 5); assay type: binding, rabbit; settings: serum 1:200; coating 2 ug/ml streptavidin and 6 ng/ml biotinylated acetylamantadine; tested 0.025 to 250 ng/ml
Procedure: It will accordingly be understood by a person skilled in the art that the immunological assay disclosed herein may be used to detect or quantify acetylamantadine in a patient who has taken a small dose of amantadine. This is shown in FIG. 5 which illustrates the results of an acetylamandine competitive ELISA with signal reading against acetylamantadine competitive concentration. The ELISA plate coating was 2 ug/ml streptavidin and 6 ng/ml biotinylated acetylamantadine. The competition ELISA using serum at 1:200 dilution against acetylamantadine ranging from 0.025 ng/ml to 250 ng/ml. Complete inhibition inhibition occurs near 100 ng/ml of soluble acetylamantadine. The detection limit (sensitivity) is near 0.5 ng/ml to 1.0 ng/ml The quantification of acetylamantadine can be used to quantify SSAT activity and elevated SSAT activity is an indication of diseases including, but not limited, to inflammations and cancers.

Compound	concentration giving significant inhibition (50%) of the binding in the ELISA [1] [pg/mL]	concentration giving significant inhibition (50%) of the binding in the ELISA [2] [ng/mL]	concentration giving significant inhibition (50%) of the binding in the ELISA [3] [pg/mL]	concentration at which complete inhibition occurs (serum at 1:200 dilution) [ng/mL]
CC(=O)NC12CC3CC(CC(C3)C1)C2 [acetylamantadine]	~400	~1.3	~300	~100
NC12CC3CC(CC(C3)C1)C2 [amantadine]	4e+07	100000	1e+08	–
